From ChEMBL document CHEMBL2074256, “HIV protease inhibitors are inhibitors but not substrates of the human breast cancer resistance protein (BCRP/ABCG2)” (J Pharmacol Exp Ther, 2004) come the findings set out here.

The test concerns the target T1, Broad substrate specificity ATP-binding cassette transporter ABCG2 (Homo sapiens, UniProt Q9UNQ0).
T1 sequence (Q9UNQ0 whole entry): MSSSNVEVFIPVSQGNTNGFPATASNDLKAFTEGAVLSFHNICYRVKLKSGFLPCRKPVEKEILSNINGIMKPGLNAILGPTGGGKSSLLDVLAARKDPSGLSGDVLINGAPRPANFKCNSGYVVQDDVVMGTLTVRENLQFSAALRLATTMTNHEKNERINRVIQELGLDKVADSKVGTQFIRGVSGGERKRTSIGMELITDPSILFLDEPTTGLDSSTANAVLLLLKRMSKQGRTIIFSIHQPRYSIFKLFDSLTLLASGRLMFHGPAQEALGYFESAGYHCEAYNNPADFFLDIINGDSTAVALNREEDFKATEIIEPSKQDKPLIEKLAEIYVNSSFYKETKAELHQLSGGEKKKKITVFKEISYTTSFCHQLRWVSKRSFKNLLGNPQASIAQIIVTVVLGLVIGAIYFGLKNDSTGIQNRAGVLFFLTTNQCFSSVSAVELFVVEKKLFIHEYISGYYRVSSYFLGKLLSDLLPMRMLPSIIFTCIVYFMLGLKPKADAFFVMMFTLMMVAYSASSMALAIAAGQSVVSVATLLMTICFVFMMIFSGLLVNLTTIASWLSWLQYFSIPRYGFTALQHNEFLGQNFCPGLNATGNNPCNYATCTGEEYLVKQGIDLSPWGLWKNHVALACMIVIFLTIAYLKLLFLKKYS
In words: TP_TRANSPORTER: increase in mitoxantrone intracellular accumulation in BCRP-expressing HEK cells. The test is classed as functional, cell-based, HEK293.

Take `CC(C)(C)NC(=O)[C@@H]1C[C@@H]2CCCC[C@@H]2CN1C[C@@H](O)[C@H](Cc1ccccc1)NC(=O)[C@H](CC(N)=O)NC(=O)c1ccc2ccccc2n1`: the concentration for half-maximal inhibition (IC50) stood at 19.5 µM.

Regarding `Cc1c(O)cccc1C(=O)N[C@@H](CSc1ccccc1)[C@H](O)CN1C[C@H]2CCCC[C@H]2C[C@H]1C(=O)NC(C)(C)C`, the 50% inhibitory concentration (IC50) was found to be 12.5 µM.
